Assays:
HMG CoA Reductase = target: T1, HMG CoA Reductase (Rattus norvegicus, UniProt P51639); test: Prophylactic study: HMG CoA reductase activity in liver homogenate; format: in vivo, Wistar strain albino rats; conditions: HFD+normal diet, after sacrifice
T1 construct: The tissue homogenate was prepared by homogenizing 1 gm of tissue (liver) with 10 ml of saline arsenate solution; from tissue; host or cells: rat liver homogenate
T1 sequence (P51639 1-887): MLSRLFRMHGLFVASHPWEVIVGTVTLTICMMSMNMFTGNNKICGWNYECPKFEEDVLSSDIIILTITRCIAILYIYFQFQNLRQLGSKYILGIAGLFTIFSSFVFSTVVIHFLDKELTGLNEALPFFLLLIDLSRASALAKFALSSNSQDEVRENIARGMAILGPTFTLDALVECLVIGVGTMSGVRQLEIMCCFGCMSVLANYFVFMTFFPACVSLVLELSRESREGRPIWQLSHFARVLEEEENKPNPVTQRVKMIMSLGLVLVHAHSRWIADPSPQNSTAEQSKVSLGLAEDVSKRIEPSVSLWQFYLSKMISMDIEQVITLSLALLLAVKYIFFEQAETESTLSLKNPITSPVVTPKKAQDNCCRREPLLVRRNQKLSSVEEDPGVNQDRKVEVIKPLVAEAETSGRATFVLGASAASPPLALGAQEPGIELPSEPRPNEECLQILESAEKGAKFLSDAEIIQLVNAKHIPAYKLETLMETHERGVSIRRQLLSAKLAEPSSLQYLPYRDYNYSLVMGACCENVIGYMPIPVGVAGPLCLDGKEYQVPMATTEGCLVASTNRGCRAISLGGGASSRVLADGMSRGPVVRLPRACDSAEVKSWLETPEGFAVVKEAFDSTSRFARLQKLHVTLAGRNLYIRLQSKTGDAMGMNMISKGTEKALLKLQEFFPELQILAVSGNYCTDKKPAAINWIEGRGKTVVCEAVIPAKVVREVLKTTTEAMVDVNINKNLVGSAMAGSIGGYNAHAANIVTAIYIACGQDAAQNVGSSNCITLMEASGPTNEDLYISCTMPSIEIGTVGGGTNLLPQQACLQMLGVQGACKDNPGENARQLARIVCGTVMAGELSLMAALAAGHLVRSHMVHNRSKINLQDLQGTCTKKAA
Protocol: 1.5-2 ml blood sample was taken from retino-orbital chamber in vials for biochemical estimations at every 15 days. Investigations performed included detailed Total Cholesterol—TC (mg/dl), Triglyceride—TG (mg/dl), High Density Lipoprotein—HDL-C (mg/dl), Low Density Lipoprotein—LDL-C (mg/dl), Very Low-Density Lipoprotein—VLDL (mg/dl), WBC (10^3/u1), RBC (10^6/u1), Hb (g/dl), PCV (%), Reticulocyte (%), Platelet count 10^5/mm^3, Clotting time (Sec), Neutrophils, Lymphocyte, Monocyte and Eosinophil. The estimations were done with Ecoline kits from Erba Mannheim, ERBA diagnostics Mannheml, Germany using Semi Autoanalyzer RX50 of MicroLabs Instruments and COUNCELL21 of Tulip Diagnostics Pvt. Ltd. Lipid peroxidation (Plasma & Liver), HMG Co-Reductase, Creatine phosphokinase (CPK), Lactate dehydrogenase (LDH), SGOT and SGPT were estimated at the end of both the studies using the kits.
The tissue homogenate was prepared by homogenizing 1 gm of tissue (liver) with 10 ml of saline arsenate solution. Further equal volumes of the fresh 10% tissue homogenate and diluted perchloric acid were mixed and allowed to stand for 5 minute and centrifuge (2000 rpm, 10 minutes). […] The readings were taken after 10 minutes at 540 nm vs. a similarly treated saline/arsenate blank.

[1] = Therapeutic study: organ body weight after necropsy; format: in vivo, Wistar strain albino rats
Protocol: The prophylactic study which lasted 90 days used 6 rats per group. […] The 6 groups were as follows: • 1. Normal Control • 2. High Fat Diet (HFD) 1 ml 1/d+Normal Diet • 3. High Fat Diet (HFD)+Normal Diet+the composition of the present invention (OD) • 4, High Fat Diet (HFD)+Normal Diet+the composition of the present invention (BD) • 5. […] The body weights were recorded to the nearest gram (g) with proper tare to 0.0000 with the subject at steady state on the weighing machine. The same weighing machine was used for all the subjects. The machine was tested with a known set of weights for any error.

Which “HMG Co Reductase” value (HMG CoA Reductase) does the source give for `CC(C)c1c(C(=O)Nc2ccccc2)c(-c2ccccc2)c(-c2ccc(F)cc2)n1CC[C@@H](O)C[C@@H](O)CC(=O)O` [Statin, Atorvastatin] here?
The value was 163.92 ± 4.02 U/mg.

What about the “Intestine (organ body weight after necropsy)” value ([1]; HFD Continued) of the same compound?
Its value is 2.00 ± 0.02.

What about the “Kidney (organ body weight after necropsy)” value ([1]; HFD Continued) of the same compound?
The value was 2.82 ± 0.06 g/100 g bd. wt.

What about the “Liver (organ body weight after necropsy)” value ([1]; HFD Continued) of the same compound?
The value was 4.51 ± 0.12 g/100 g.

And the “Lungs (organ body weight after necropsy)” value ([1]; HFD Continued)?
Its value is 0.65 ± 0.03 g/100 g bd. wt.

What about the “Pancrease (organ body weight after necropsy)” value ([1]; HFD Continued) of the same compound?
Its value is 0.89 ± 0.05 g/100 g bd. wt.

And the “Spleen (organ body weight after necropsy)” value ([1]; HFD Continued)?
Its value is 1.19 ± 0.02.

And the “Intestine (organ body weight after necropsy)” value ([1]; HFD Discontinued)?
Its value is 2.00 ± 0.02.

And the “Kidney (organ body weight after necropsy)” value ([1]; HFD Discontinued)?
Its value is 2.84 ± 0.04 g/100 g bd. wt.

And the “Liver (organ body weight after necropsy)” value ([1]; HFD Discontinued)?
Its value is 4.37 ± 0.05 g/100 g.

And the “Lungs (organ body weight after necropsy)” value ([1]; HFD Discontinued)?
Its value is 0.66 ± 0.03 g/100 g bd. wt.

What about the “Pancrease (organ body weight after necropsy)” value ([1]; HFD Discontinued) of the same compound?
The value was 0.91 ± 0.03 g/100 g bd. wt.

And the “Spleen (organ body weight after necropsy)” value ([1]; HFD Discontinued)?
The value was 1.17 ± 0.03.

— patent US20230270804A1, “ANTI-HYPERCHOLESTEROLEMIA COMPOSITION AND A METHOD OF MANUFACTURING THE SAME” (NBI BIOSCIENCES PRIVATE LIMITED, priority 2020, published 2023)
